Assay [1] has as its target T1, Neuronal acetylcholine receptor; alpha3/beta4 (Homo sapiens, UniProt P30926+P32297). Nature of the assay: Responses to that evoked by Nicotinic acetylcholine receptor alpha3-beta4 expressed in xenopus oocytes up to 1 mM. In kind it is cell-based. The settings on record: Oocyte.
Assay [2] concerns the target T2, Neuronal acetylcholine receptor; alpha3/beta2 (Homo sapiens) (UniProt P17787+P32297). Nature of the assay: Responses to that evoked by Nicotinic acetylcholine receptor alpha3-beta2 expressed in xenopus oocytes up to 1 mM. Format: cell-based. The conditions noted are these: Oocyte.
Assay [3] relates to Oocyte. Nature of the assay: Antagonism of ACh response at Nicotinic acetylcholine receptor alpha-3-beta-2-alpha-5 receptor expressed in xenopus oocytes up to 1 mM. Format: functional, cell-based. The settings on record: Homo sapiens.
In assay [4] the target is T3, Neuronal acetylcholine receptor; alpha4/beta2 (Homo sapiens, UniProt P17787+P43681). Nature of the assay: Responses to that evoked by ACh at human Nicotinic acetylcholine receptor alpha4-beta2 expressed in xenopus oocytes up to 1 mM. Format: cell-based. The settings on record: Oocyte.
T3 sequence (P17787 whole entry): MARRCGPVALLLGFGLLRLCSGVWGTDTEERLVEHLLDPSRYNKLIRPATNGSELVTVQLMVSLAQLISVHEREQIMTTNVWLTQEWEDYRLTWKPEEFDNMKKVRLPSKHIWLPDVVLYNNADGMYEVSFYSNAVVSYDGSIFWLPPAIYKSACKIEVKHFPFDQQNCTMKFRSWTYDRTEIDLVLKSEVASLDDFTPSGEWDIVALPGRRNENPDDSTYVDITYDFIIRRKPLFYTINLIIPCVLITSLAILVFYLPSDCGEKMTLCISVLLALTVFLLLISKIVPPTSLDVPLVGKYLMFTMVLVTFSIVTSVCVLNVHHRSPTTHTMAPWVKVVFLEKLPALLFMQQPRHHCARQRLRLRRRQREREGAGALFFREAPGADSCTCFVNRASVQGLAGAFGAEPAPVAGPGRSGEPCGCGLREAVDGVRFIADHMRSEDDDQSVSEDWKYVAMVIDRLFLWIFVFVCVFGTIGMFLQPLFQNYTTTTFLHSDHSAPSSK
T3 sequence (P43681 whole entry): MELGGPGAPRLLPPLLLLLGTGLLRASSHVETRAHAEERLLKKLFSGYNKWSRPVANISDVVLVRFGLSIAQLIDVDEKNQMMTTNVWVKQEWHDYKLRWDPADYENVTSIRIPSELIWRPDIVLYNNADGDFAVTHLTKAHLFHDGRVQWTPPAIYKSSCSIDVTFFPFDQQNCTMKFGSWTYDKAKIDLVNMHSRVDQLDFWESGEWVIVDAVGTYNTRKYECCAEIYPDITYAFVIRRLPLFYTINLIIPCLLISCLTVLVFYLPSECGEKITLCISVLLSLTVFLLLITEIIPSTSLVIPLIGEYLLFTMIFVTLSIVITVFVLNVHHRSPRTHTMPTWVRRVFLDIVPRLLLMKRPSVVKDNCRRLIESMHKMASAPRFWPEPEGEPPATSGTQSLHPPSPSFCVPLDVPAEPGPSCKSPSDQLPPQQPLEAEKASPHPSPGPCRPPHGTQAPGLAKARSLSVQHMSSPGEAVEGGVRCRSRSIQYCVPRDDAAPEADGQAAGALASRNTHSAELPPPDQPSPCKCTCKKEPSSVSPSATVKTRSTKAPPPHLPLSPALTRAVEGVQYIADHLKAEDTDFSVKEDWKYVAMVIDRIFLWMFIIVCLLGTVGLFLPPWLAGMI
In assay [5] the target is T3, Neuronal acetylcholine receptor; alpha4/beta2. Nature of the assay: Antagonism of ACh response at Nicotinic acetylcholine receptor alpha4-beta2 expressed in xenopus oocytes. In kind it is functional, cell-based, Oocyte.
Assay [6] deals with T4, Neuronal acetylcholine receptor subunit alpha-7 (Rattus norvegicus, UniProt Q05941). The assay can be described thus: Inhibition of the response to ACh when coapplied with Nicotinic acetylcholine receptor alpha7.
T4 sequence (Q05941 whole entry): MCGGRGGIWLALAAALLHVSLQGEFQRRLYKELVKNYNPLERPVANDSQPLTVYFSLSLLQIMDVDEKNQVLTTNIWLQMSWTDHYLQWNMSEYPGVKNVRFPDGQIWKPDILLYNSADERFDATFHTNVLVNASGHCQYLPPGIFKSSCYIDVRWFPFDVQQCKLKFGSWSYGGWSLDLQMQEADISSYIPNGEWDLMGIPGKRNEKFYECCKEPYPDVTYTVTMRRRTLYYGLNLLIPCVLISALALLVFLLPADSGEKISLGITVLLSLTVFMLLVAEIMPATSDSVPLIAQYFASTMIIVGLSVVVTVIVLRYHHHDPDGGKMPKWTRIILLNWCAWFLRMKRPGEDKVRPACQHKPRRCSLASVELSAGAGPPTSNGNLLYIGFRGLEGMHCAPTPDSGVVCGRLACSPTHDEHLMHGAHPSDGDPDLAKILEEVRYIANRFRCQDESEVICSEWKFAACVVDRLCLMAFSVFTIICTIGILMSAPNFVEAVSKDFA
In assay [7] the target is T1, Neuronal acetylcholine receptor; alpha3/beta4. The assay can be described thus: Antagonism of ACh-evoked responses at human Nicotinic acetylcholine receptor alpha3-beta4 expressed in xenopus oocytes. Format: functional, cell-based, Oocyte.
In assay [8] the target is T5, 5-hydroxytryptamine receptor 3A (Rattus norvegicus) (UniProt P35563).
T5 sequence (whole entry): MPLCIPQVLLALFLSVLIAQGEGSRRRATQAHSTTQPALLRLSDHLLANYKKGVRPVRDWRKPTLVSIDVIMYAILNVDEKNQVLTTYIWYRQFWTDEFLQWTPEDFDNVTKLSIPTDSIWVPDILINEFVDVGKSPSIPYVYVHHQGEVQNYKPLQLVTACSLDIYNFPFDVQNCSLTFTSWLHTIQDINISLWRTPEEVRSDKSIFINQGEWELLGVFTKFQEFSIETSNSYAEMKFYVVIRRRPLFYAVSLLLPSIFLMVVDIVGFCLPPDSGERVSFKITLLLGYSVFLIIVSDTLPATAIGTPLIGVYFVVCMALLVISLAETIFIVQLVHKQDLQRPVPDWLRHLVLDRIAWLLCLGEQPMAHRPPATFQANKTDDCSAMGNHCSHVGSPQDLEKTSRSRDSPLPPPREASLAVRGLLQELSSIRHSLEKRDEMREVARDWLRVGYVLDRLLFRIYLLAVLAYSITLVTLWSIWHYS
Nature of the assay: Ability to block serotonin (30 uM)-evoked responses at rat 5HT3-alpha receptor expressed in xenopus oocytes. Format: functional, cell-based. The conditions noted are these: Oocyte.

Assay [9] addresses T1, Neuronal acetylcholine receptor; alpha3/beta4. Nature of the assay: Activation responses to that evoked by ACh at human alpha3-beta4 receptor expressed in xenopus oocytes at 1 mM. Format: cell-based. The settings on record: Oocyte.
The target in assay [10] is T4, Neuronal acetylcholine receptor subunit alpha-7. The assay can be described thus: Activation responses to that evoked by ACh at human Nicotinic acetylcholine receptor alpha-7 expressed in xenopus oocytes. In kind it is cell-based, Oocyte.
In assay [11] the test system is Oocyte. Nature of the assay: Activation responses to that evoked by ACh at human Nicotinic acetylcholine receptor alpha-3-beta-2-alpha-5 expressed in xenopus oocytes at 100 uM. Format: cell-based.
In assay [12] the target is T2, Neuronal acetylcholine receptor; alpha3/beta2 (Homo sapiens). The assay can be described thus: Activation responses to that evoked by Nicotinic acetylcholine receptor alpha3-beta2 expressed in xenopus oocytes at 1 mM. The conditions noted are these: Oocyte. Format: cell-based.
The target is the same in assay [13]. The assay can be described thus: Activation responses to that evoked by Nicotinic acetylcholine receptor alpha3-beta2 expressed in xenopus oocytes at 300 uM. In kind it is cell-based. The settings on record: Oocyte.
The target of assay [14] is T3, Neuronal acetylcholine receptor; alpha4/beta2. Nature of the assay: Activation responses to that evoked by ACh at human Nicotinic acetylcholine receptor alpha4-beta2. In kind it is protein-complex assay.
Assay [15] has the same target. The assay can be described thus: Activation responses to that evoked by ACh at human Nicotinic acetylcholine receptor alpha4-beta2 expressed in xenopus oocytes at 300 uM. Format: cell-based. The conditions noted are these: Oocyte.
The target in assay [16] is T5, 5-hydroxytryptamine receptor 3A (Rattus norvegicus). Nature of the assay: Effect on rat 5-hydroxytryptamine 3a receptor expressed in xenopus oocytes at concentration up to 100 uM. Format: functional, cell-based. The settings on record: Oocyte.

Three molecules from ChEMBL document CHEMBL1147510 (Bioorg Med Chem Lett, 2004) can be followed below.

Calls of active or inactive are those of the source. No cut-off for these calls is given here.

The term IC50 denotes the midpoint of a concentration-inhibition curve. The term EC50 denotes the concentration needed to bring the measured effect to its halfway point. Low readings indicate higher potency in that assay, high ones lower potency in that assay.

T1 sequence (P30926 whole entry): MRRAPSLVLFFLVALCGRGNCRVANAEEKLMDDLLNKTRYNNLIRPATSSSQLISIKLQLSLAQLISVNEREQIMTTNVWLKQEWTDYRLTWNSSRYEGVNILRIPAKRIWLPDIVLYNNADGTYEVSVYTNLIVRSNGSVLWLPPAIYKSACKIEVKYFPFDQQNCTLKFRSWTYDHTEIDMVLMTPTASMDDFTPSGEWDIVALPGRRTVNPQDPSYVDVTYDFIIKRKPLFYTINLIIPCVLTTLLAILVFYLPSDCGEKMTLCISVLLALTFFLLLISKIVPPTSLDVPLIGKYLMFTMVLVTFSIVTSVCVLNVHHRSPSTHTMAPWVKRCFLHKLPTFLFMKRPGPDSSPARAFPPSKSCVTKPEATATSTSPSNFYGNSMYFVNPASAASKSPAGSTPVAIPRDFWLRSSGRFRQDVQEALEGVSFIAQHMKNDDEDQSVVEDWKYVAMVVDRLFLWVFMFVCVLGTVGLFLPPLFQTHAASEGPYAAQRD
T1 sequence (P32297 whole entry): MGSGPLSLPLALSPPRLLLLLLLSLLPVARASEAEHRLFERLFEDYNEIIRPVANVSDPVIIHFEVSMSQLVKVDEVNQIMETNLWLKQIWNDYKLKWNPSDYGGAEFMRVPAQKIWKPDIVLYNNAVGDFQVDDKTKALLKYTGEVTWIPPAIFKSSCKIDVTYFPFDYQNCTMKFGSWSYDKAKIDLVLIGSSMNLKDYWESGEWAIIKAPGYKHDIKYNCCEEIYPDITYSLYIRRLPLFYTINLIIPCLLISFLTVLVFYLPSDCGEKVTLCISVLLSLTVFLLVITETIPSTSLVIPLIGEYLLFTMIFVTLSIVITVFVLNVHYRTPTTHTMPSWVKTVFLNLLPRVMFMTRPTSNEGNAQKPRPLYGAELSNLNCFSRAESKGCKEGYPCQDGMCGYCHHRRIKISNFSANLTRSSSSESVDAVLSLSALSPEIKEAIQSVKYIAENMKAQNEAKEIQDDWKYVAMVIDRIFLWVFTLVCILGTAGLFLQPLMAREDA

For `CN1[C@@H]2CC[C@H]1C[C@@H](OC(=O)c1c[nH]c3ccccc13)C2` [TROPISETRON], the Effect entry (in assay [1]; in assay [2]; with Oocyte [3]; in assay [4]) was “inactive” throughout. 170 µM corresponded to half-maximal inhibition in assay [5] (IC50).
As for `Cc1nccn1CC1CCc2c(c3ccccc3n2C)C1=O` (stereo not drawn) [ONDANSETRON], the IC50 in [6] came to 25 µM; in assay [7], 27 µM; in assay [5], 66 µM. Also, the Effect result in assay [1] (filed as antagonist) and in assay [4] (filed as antagonist) was “Antagonist” each time. The Effect result (in [2]; with Oocyte [3]) was “inactive” throughout.
For `O=C1NC[C@@]2(CN3CCC2CC3)O1`, the Effect result in [8] and in assay [16] was “inactive” each time. The Activation entry in [9] was “inactive”. In addition, the IC50 in assay [7] was above 1000 µM; in assay [5], above 2000 µM. Also, the EC50 in assay [10] was 0.38 µM. Besides, the Activation stood at 3% in the assay with Oocyte [11]; 2% in assay [12]; 1% in assay [13]; 2% in [14]; 1% in assay [15].
